According to patent US20250312469A1 (CANGET BIOTEKPHARMA, priority 2024, published 2025):
Several values for one entry are separate records, joined by “and”; a condition that tells them apart may be missing. Equal values may be shown once. Entries after “also recorded” stand apart in the source; their conditions may differ.

Columns and labels:
[1] = Hepatocyte stability; conditions: for hepatocyte CLint at 0.5 μM / half-life at 0.5 μM: both, human, hepatocytes; for hepatocyte CLint at 0.5 μM: pH 7.4, Clint (intrinsic clearance); for hepatocyte CLint at 0.5 μM / half-life at 0.5 μM / % Remaining: cryopreserved human hepatocytes; for half-life at 0.5 μM: pH 7.4, Half-life
[2] = test system: L5178Y TK+/− mouse lymphoma cells; assay: Mouse Lymphoma Assay (MLA); conditions: for Avg. ACE / Avg. MF / Avg. RTG / Avg. SG: 4 h summary
Description: The cells were prepared in Fischer's or RPMI media supplemented with 10% heat-inactivated horse serum, penicillin-streptomycin, Lglutamine, sodium pyruvate and Pluronic F68. In the initial assay, prior to use in the test, the culture was purged of preexisting TK−/− mutations by exposure to THMG treated medium for 1 day, followed by a transfer to THG medium for 1 to 2 days. This was performed 5 to 8 days prior to testing. In the expanded assay a vial of frozen cells was thawed and used within 5 to 8 days of growth. No washing was needed because the cells were purged of preexisting TK−/− mutations by exposure to THMG treated medium for 1 day and then THG medium for 1 day prior to freezing. […] Colonies were counted using an automated colony counter or manually. After 4 or 24 hours of exposure, the cells were grown for recovery and expression for approximately 48 hours before plated in TFT cloning media. A second set of plates were prepared without TFT to assess viability of cells following treatment. […] Colonies observed on the TFT plate were defined as small or large colonies. […] (3) Of note, the metabolic activation system in this assay consisted of a rat liver homogenate (S-9 microsomal fraction), which was delivered to the test system in the presence of a core mix consisting of NADP and cofactors for NADPH-supported oxidation. The S9 was prepared using the following recipe (per treatment tube); 1 mL of 20 mg/mL S9, 32 mg of NADP, 60 mg of isocitric acid, 40 μL of calcium chloride (CaCl2) and 3.0 mL of cell cultural media. All treatments were performed in duplicate. The treatment tubes were placed in a CO2 incubator at 37±1° C. with continuous agitation.

[3] = biological target: hERG (Homo sapiens, UniProt Q12809); assay: cell-based
Description: All cell suspensions, buffers, and test compound solutions were at room temperature during the experiment. Briefly, Chinese hamster ovary (CHO) cells stably transfected with hERG (cell line obtained from Cytomyx, UK) were seeded in each well of a PatchPlate™ positioned over a small hole at the bottom of each well to form an electrical seal. The resistance of each seal was measured via a common ground electrode in the intracellular compartment and individual electrodes placed into each of the upper wells. Electrical access to the cell was then achieved by circulating a perforating agent, amphotericin B, underneath the PatchPlate™. The hERG channels were activated by applying a depolarizing step to +40 mV for 5 s and then clamped at […] for 4 s to elicit the hERG tail current, before returning to […] for 0.3 s. […] Each concentration was tested in 4 replicate wells on the PatchPlate™.
All cell suspensions, buffers and test compound solutions were at room temperature during the experiment. (2) The cells used were Chinese hamster ovary (CHO) cells stably transfected with hERG (cell line obtained from Cytomyx, UK). A single cell suspension was prepared in extracellular solution (Dulbecco's phosphate buffered saline with calcium and magnesium pH 7.2) and aliquots added automatically to each well of a PatchPlate™. The cells were then positioned over a small hole at the bottom of each well by applying a vacuum beneath the plate to form an electrical seal. The vacuum was applied through a single compartment common to all wells which was filled with intracellular solution (buffered to pH 7.2 with HEPES). The resistance of each seal was measured via a common ground electrode in the intracellular compartment and individual electrodes placed into each of the upper wells. Electrical access to the cell was then achieved by circulating a perforating agent, amphotericin B, underneath the PatchPlate™. (3) The pre compound hERG current was then measured. […] The hERG channels were then activated by applying a depolarizing step to +40 mV for 5 sec and then clamped at […] for 4 sec to elicit the hERG tail current, before returning to […] for 0.3 sec. […] (5) The IonWorks™ HT instrument automatically added test compound dilutions to the upper wells of the PatchPlate™ from a 96 well microtitre plate. The test compound was left in contact with the cells for 300 sec before recording currents using the same voltage step protocol as in the pre compound scan. […] (6) Each concentration was tested in 4 replicate wells on the PatchPlate™ (maximum of 24 data points).
The percentage inhibition was calculated using the following equation: […]

hERG, sequence (Q12809 whole entry): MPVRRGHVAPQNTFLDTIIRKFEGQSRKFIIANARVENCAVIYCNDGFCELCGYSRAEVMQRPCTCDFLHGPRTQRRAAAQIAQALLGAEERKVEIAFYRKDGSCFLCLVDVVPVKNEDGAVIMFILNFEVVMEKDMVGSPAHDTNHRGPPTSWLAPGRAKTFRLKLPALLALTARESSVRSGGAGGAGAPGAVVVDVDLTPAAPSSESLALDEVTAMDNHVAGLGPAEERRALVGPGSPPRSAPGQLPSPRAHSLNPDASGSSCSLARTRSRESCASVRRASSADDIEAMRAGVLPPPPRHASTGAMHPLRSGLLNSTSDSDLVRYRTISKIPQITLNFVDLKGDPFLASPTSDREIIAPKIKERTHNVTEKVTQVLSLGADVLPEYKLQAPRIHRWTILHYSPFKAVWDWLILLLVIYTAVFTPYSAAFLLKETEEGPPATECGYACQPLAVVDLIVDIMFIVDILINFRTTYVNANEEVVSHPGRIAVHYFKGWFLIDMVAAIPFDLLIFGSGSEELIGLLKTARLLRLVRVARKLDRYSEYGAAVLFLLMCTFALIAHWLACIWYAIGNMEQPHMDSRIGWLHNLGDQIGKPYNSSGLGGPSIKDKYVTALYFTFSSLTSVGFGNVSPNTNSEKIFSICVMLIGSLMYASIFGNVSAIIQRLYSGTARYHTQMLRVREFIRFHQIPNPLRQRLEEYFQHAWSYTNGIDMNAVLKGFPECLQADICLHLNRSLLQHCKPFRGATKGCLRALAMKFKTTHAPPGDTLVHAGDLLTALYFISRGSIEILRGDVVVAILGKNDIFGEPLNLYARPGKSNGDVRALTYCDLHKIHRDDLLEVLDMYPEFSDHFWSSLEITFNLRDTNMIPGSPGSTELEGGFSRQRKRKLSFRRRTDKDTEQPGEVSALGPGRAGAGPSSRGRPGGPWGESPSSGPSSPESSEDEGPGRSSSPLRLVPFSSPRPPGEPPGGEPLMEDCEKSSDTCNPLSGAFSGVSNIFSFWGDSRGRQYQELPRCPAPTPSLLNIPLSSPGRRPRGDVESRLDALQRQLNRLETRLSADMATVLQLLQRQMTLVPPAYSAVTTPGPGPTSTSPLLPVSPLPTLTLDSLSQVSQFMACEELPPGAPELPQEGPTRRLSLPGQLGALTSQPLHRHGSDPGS

Structure (SMILES): CCC1(O)C(=O)OCc2c1cc1n(c2=O)Cc2cc3cc4c(cc3nc2-1)OCO4 (centres unmarked) [FL118]
- half-life ([1]; 0.5 μM): long half-life
- hepatocyte CLint at 0.5 μM ([1]; calculated (in parentheses)): 2.96 µL/min/1e6 cells
- hepatocyte CLint at 0.5 μM ([1]; bound): < 3.85 µL/min/1e6 cells
- half-life at 0.5 μM ([1]; calculated (in parentheses), calculated half-life longer than the experiment): 2.6 h
- half-life at 0.5 μM ([1]; expressed as > the longest incubation time (120 min)): > 2 h
- % Remaining ([1]; 0 min): 100%
- % Remaining ([1]; 15 min): 79%
- % Remaining ([1]; 30 min): 71%
- % Remaining ([1]; 60 min): 66%
- % Remaining ([1]; 120 min): 58%
- concentrations considered unable to induce mutation ([2]; 4-hour +S9): ≤ 0.32 µM
- concentrations considered positive (mutagenic/clastogenic) ([2]; 4-hour -S9): > 0.1 µM
- concentrations considered unable to induce mutation ([2]; 4-hour -S9): ≤ 0.032 µM
- Average SG ([2]; 4 h, +S9, 0.1 uM): 12.9
- Day 1 Growth Cell Conc. ([2]; 4 h, +S9, 0.1 uM): 6.71E+05 Cell/mL and 7.82E+05 Cell/mL
- Day 2 Growth Cell Conc. ([2]; 4 h, +S9, 0.1 uM): 1.55E+06 Cell/mL and 1.64E+06 Cell/mL
- Suspension Growth (SG) ([2]; 4 h, +S9, 0.1 uM): 11.4 and 14.3
- Average SG ([2]; 4 h, +S9, 1 uM): 10.7
- Day 1 Growth Cell Conc. ([2]; 4 h, +S9, 1 uM): 7.55E+05 Cell/mL and 6.56E+05 Cell/mL
- Day 2 Growth Cell Conc. ([2]; 4 h, +S9, 1 uM): 1.27E+06 Cell/mL and 1.45E+06 Cell/mL
- Suspension Growth (SG) ([2]; 4 h, +S9, 1 uM): 10.5 and 10.8
- concentrations considered positive (mutagenic/clastogenic) ([2]; 4 hour +S9): > 1.0 µM
- Avg. ACE ([2]; +S9, 0.1 uM): 82.5%
- Avg. MF ([2]; +S9, 0.1 uM): 71 ×10^−6
- Avg. RTG ([2]; +S9, 0.1 uM): 98.8%
- Avg. SG ([2]; +S9, 0.1 uM): 12.9
- Avg. ACE ([2]; +S9, 1 uM): 62.3%
- Avg. MF ([2]; +S9, 1 uM): 231 ×10^−6
- Avg. RTG ([2]; +S9, 1 uM): 81.5%
- Avg. SG ([2]; +S9, 1 uM): 10.7
- Average SG ([2]; 24 h, 0.001 uM): 66.2
- Suspension Growth (SG) ([2]; 24 h, 0.001 uM): 55.8 and 65.5
- Average SG ([2]; 24 h, 0.1 uM): 29.1
- Suspension Growth (SG) ([2]; 24 h, 0.1 uM): 29.0 and 29.1
- concentrations considered positive (mutagenic/clastogenic) ([2]; 24 hour -S9): ≥ 0.1 µM
- concentrations considered unable to induce mutation ([2]; 24 hour -S9): ≤ 0.032 µM
- IC50 [3]: > 1 µM
- effect on hERG activity ([3]; CHO cells stably transfected with hERG, FL118 3-1000 nM): no inhibitory effects; also recorded: does not exhibit an inhibition of hERG activity
- inhibition at 300 s, 0.003 µM ([3]; human, pH 7.2): 14.8%
- inhibition at 300 s, 0.01 µM ([3]; human, pH 7.2): 18.7%
- inhibition at 300 s, 0.03 µM ([3]; human, pH 7.2): 5.6%
- inhibition at 300 s, 0.1 µM ([3]; human, pH 7.2): -5.2%
- inhibition at 300 s, 0.3 µM ([3]; human, pH 7.2): -2.9%
- inhibition at 300 s, 1 µM ([3]; human, pH 7.2): 19.9%
